Laboratory results reported in US11919901B2 (Syndax Pharmaceuticals, Inc., priority 2021, dated 2024).

Test system: MV4-11 cells
Test: Cell proliferation assay MV4;11 (CellTiter-Glo, 72 hours)
Assay type: cell-based
Conditions: Homo sapiens; MV4;11 leukemia cell line, 72 hours; read-out: MV4; 11 IC50
Procedure, shortened: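 Luminescent CellTiter-Glo readout after 72 h culture, 37 °C, 5% CO2, expressed relative to vehicle-treated wells, with maximal inhibition taken at the highest dose. MLL-rearranged MV4-11 leukemia cells; final compound range 0.632 to 2000 nM in eight steps.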

## CC(C)N(C(=O)c1cc(F)ccc1Oc1cncnc1N1CC2(CCN(C[C@@H]3CC[C@@H](NS(=O)(=O)N(C)C)CO3)CC2)C1)[C@H]1CCOC1 [Example 177, 2-((4-(7-(((2S,5R)-5-((N,N-Dimethylsulfamoyl)amino)tetrahydro-2H-pyran-2-yl)methyl)-2,7-diazaspiro[3.5]nonan-2-yl)pyrimidin-5-yl)oxy)-5-fluoro-N-isopropyl-N-((S)-tetrahydrofuran-3-yl)benzamide]
  IC50: < 100 nM

## CC(C)N(C(=O)c1cc(F)ccc1Oc1cncnc1N1CC2(CCN(C[C@@H]3CC[C@@H](NS(=O)(=O)N4CCCC4)CO3)CC2)C1)[C@H]1CCOC1 [Example 178, 5-Fluoro-N-isopropyl-2-((4-(7-(((2S,5R)-5-(pyrrolidine-1-sulfonamido)tetrahydro-2H-pyran-2-yl)methyl)-2,7-diazaspiro[3.5]nonan-2-yl)pyrimidin-5-yl)oxy)-N-((S)-tetrahydrofuran-3-yl)benzamide]
  IC50: < 100 nM

## CCN(C)S(=O)(=O)N[C@@H]1CC[C@@H](CN2CCC3(CC2)CN(c2ncncc2Oc2ccc(F)cc2C(=O)N(C(C)C)[C@H]2CCOC2)C3)OC1 [Example 179, 2-((4-(7-(((2S,5R)-5-((N-Ethyl-N-methylsulfamoyl)amino)tetrahydro-2H-pyran-2-yl)methyl)-2,7-diazaspiro[3.5]nonan-2-yl)pyrimidin-5-yl)oxy)-5-fluoro-N-isopropyl-N-((S)-tetrahydrofuran-3-yl)benzamide]
  IC50: < 100 nM

## CCNS(=O)(=O)N[C@@H]1CC[C@@H](CN2CCC3(CC2)CN(c2ncncc2Oc2ccc(F)cc2C(=O)N(C(C)C)[C@H]2CCOC2)C3)OC1 [Example 180, 2-((4-(7-(((2S,5R)-5-((N-Ethylsulfamoyl)amino)tetrahydro-2H-pyran-2-yl)methyl)-2,7-diazaspiro[3.5]nonan-2-yl)pyrimidin-5-yl)oxy)-5-fluoro-N-isopropyl-N-((S)-tetrahydrofuran-3-yl)benzamide]
  IC50: < 100 nM

## CC(C)N(CC#N)C(=O)c1cc(F)ccc1Oc1cncnc1N1CC2(CCN(C[C@@H]3CC[C@@H](NS(=O)(=O)N(C)C)CO3)CC2)C1 [Example 181, N-(Cyanomethyl)-2-((4-(7-(((2S,5R)-5-((N,N-dimethylsulfamoyl)amino)tetrahydro-2H-pyran-2-yl)methyl)-2,7-diazaspiro[3.5]nonan-2-yl)pyrimidin-5-yl)oxy)-5-fluoro-N-isopropylbenzamide]
  IC50: < 100 nM

## CC(C)N(CC#N)C(=O)c1cc(F)ccc1Oc1cncnc1N1CC2(CCN(C[C@@H]3CC[C@@H](NS(=O)(=O)N4CCC4)CO3)CC2)C1 [Example 182, 2-((4-(7-(((2S,5R)-5-(Azetidine-1-sulfonamido)tetrahydro-2H-pyran-2-yl)methyl)-2,7-diazaspiro[3.5]nonan-2-yl)pyrimidin-5-yl)oxy)-N-(cyanomethyl)-5-fluoro-N-isopropylbenzamide]
  IC50: < 100 nM

## CC(C)N(CCC#N)C(=O)c1cc(F)ccc1Oc1cncnc1N1CC2(CCN(C[C@@H]3CC[C@@H](NS(=O)(=O)N(C)C)CO3)CC2)C1 [Example 183, N-(2-Cyanoethyl)-2-((4-(7-(((2S,5R)-5-((N,N-dimethylsulfamoyl)amino)tetrahydro-2H-pyran-2-yl)methyl)-2,7-diazaspiro[3.5]nonan-2-yl)pyrimidin-5-yl)oxy)-5-fluoro-N-isopropylbenzamide]
  IC50: < 100 nM

## CC(C)N(CCC#N)C(=O)c1cc(F)ccc1Oc1cncnc1N1CC2(CCN(C[C@@H]3CC[C@@H](NS(=O)(=O)N4CCC4)CO3)CC2)C1 [Example 184, 2-((4-(7-(((2S,5R)-5-(Azetidine-1-sulfonamido)tetrahydro-2H-pyran-2-yl)methyl)-2,7-diazaspiro[3.5]nonan-2-yl)pyrimidin-5-yl)oxy)-N-(2-cyanoethyl)-5-fluoro-N-isopropylbenzamide]
  IC50: < 100 nM

## CCS(=O)(=O)N[C@@H]1CC[C@@H](CN2CCC3(CC2)CN(c2ncnnc2Oc2ccc(F)cc2C(=O)N(CC(F)F)C(C)C)C3)OC1 [Example 185, N-(2,2-Difluoroethyl)-2-((5-(7-(((2S,5R)-5-(ethylsulfonamido)tetrahydro-2H-pyran-2-yl)methyl)-2,7-diazaspiro[3.5]nonan-2-yl)-1,2,4-triazin-6-yl)oxy)-5-fluoro-N-isopropylbenzamide]
  IC50: < 100 nM

## CC(C)N(CC(F)F)C(=O)c1cc(F)ccc1Oc1nncnc1N1CC2(CCN(C[C@@H]3CC[C@@H](NS(=O)(=O)C4CC4)CO3)CC2)C1 [Example 186, 2-((5-(7-(((2S,5R)-5-(Cyclopropanesulfonamido)tetrahydro-2H-pyran-2-yl)methyl)-2,7-diazaspiro[3.5]nonan-2-yl)-1,2,4-triazin-6-yl)oxy)-N-(2,2-difluoroethyl)-5-fluoro-N-isopropylbenzamide]
  IC50: < 100 nM

## CCNS(=O)(=O)N[C@@H]1CC[C@@H](CN2CCC3(CC2)CN(c2ncnnc2Oc2ccc(F)cc2C(=O)N(CC(F)F)C(C)C)C3)OC1 [Example 188, N-(2,2-Difluoroethyl)-2-((5-(7-(((2S,5R)-5-((N-ethylsulfamoyl)amino)tetrahydro-2H-pyran-2-yl)methyl)-2,7-diazaspiro[3.5]nonan-2-yl)-1,2,4-triazin-6-yl)oxy)-5-fluoro-N-isopropylbenzamide]
  IC50: < 100 nM

## CC(C)N(CC(F)F)C(=O)c1cc(F)ccc1Oc1nncnc1N1CC2(CCN(C[C@@H]3CC[C@@H](NS(=O)(=O)N4CCC4)CO3)CC2)C1 [Example 189, 2-((5-(7-(((2S,5R)-5-(Azetidine-1-sulfonamido)tetrahydro-2H-pyran-2-yl)methyl)-2,7-diazaspiro[3.5]nonan-2-yl)-1,2,4-triazin-6-yl)oxy)-N-(2,2-difluoroethyl)-5-fluoro-N-isopropylbenzamide]
  IC50: < 100 nM

## CCS(=O)(=O)N[C@@H]1CC[C@@H](CN2CCC3(CC2)CN(c2ncnnc2Oc2ccc(F)cc2C(=O)N(CC(F)(F)F)C(C)C)C3)OC1 [Example 190, 2-((5-(7-(((2S,5R)-5-(Ethylsulfonamido)tetrahydro-2H-pyran-2-yl)methyl)-2,7-diazaspiro[3.5]nonan-2-yl)-1,2,4-triazin-6-yl)oxy)-5-fluoro-N-isopropyl-N-(2,2,2-trifluoroethyl)benzamide]
  IC50: < 100 nM

## CC(C)N(CC(F)(F)F)C(=O)c1cc(F)ccc1Oc1nncnc1N1CC2(CCN(C[C@@H]3CC[C@@H](NS(=O)(=O)C4CC4)CO3)CC2)C1 [Example 191, 2-((5-(7-(((2S,5R)-5-(Cyclopropanesulfonamido)tetrahydro-2H-pyran-2-yl)methyl)-2,7-diazaspiro[3.5]nonan-2-yl)-1,2,4-triazin-6-yl)oxy)-5-fluoro-N-isopropyl-N-(2,2,2-trifluoroethyl)benzamide]
  IC50: < 100 nM

## CCS(=O)(=O)N[C@@H]1CC[C@@H](CN2CCC3(CC2)CN(c2ncnnc2Oc2ccc(F)cc2C(=O)N(C(C)C)C(C)C)C3)OC1 [Example 195, 2-((5-(7-(((2S,5R)-5-(Ethylsulfonamido)tetrahydro-2H-pyran-2-yl)methyl)-2,7-diazaspiro[3.5]nonan-2-yl)-1,2,4-triazin-6-yl)oxy)-5-fluoro-N,N-diisopropylbenzamide]
  IC50: < 100 nM

## CC(C)N(C(=O)c1cc(F)ccc1Oc1nncnc1N1CC2(CCN(C[C@@H]3CC[C@@H](NS(=O)(=O)C4CC4)CO3)CC2)C1)C(C)C [Example 196, 2-((5-(7-(((2S,5R)-5-(Cyclopropanesulfonamido)tetrahydro-2H-pyran-2-yl)methyl)-2,7-diazaspiro[3.5]nonan-2-yl)-1,2,4-triazin-6-yl)oxy)-5-fluoro-N,N-diisopropylbenzamide]
  IC50: < 100 nM
